Tests used:
[1] = test system: redroot pigweed; test: Test A pre-/postemergence greenhouse test; assay type: in vivo, Amaranthus retroflexus; conditions: for Plant response rating, Pigweed: 0 to 100 scale where 0 is no effect and 100 is complete control; for Pigweed plant response rating: 0 to 100 scale
Method in brief: (§1)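 Pots of loam–sand soil sown with the test species are sprayed preemergence on the soil surface; emerged seedlings (1–2 leaves, 2–10 cm) are sprayed postemergence at the same time. The vehicle is a non-phytotoxic solvent mixture with surfactant. Injury is scored visually after ~10 d in greenhouse.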

[2] = test system: wheat; test: Test C pre-/postemergence test; assay type: in vivo, Triticum aestivum
Method in brief: (§2)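 Seeds were planted and treated preemergence with test chemical in a non-phytotoxic solvent mixture containing surfactant. Postemergence applications of the same formulation went onto plants 2 to 18 cm tall (1- to 4-leaf stage). A dash marks no test result.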

[3] = test system: yellow nutsedge; test: Test C pre-/postemergence test; assay type: in vivo, Cyperus esculentus
Method in brief: as §2

[4] = test system: johnsongrass; test: Test C pre-/postemergence test; assay type: in vivo, Sorghum halepense
Method in brief: as §2

[5] = test system: duck salad; test: Test C flooded paddy test; assay type: in vivo, Heteranthera limosa; conditions: Flood
Method in brief: (§3)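 In-water treatment: compound dosed into 3 cm flood over soil, water level unchanged throughout. Controls run alongside; visual assessment at day 13–15.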

[6] = test system: corn; test: Test C pre-/postemergence test; assay type: in vivo, Zea mays
Method in brief: as §2

[7] = test system: morningglory; test: Test C pre-/postemergence test; assay type: in vivo, Ipomoea coccinea
Method in brief: as §2

[8] = test system: catchweed bedstraw; test: Test C pre-/postemergence test; assay type: in vivo, Galium aparine
Method in brief: as §2

[9] = test system: giant foxtail; test: Test C pre-/postemergence test; assay type: in vivo, Setaria faberii
Method in brief: as §2

[10] = test system: downy brome; test: Test C pre-/postemergence test; assay type: in vivo, Bromus tectorum
Method in brief: as §2

[11] = test system: velvetleaf; test: Test A pre-/postemergence greenhouse test; assay type: in vivo, Abutilon theophrasti; conditions: for Plant response rating, Velvetleaf: 0 to 100 scale where 0 is no effect and 100 is complete control; for Velvetleaf plant response rating: 0 to 100 scale
Method in brief: as §1

[12] = test system: velvetleaf; test: Test C pre-/postemergence test; assay type: in vivo, Abutilon theophrasti
Method in brief: as §2

[13] = test system: eastern black nightshade; test: Test C pre-/postemergence test; assay type: in vivo, Solanum ptycanthum
Method in brief: as §2

[14] = test system: woolly cupgrass; test: Test C pre-/postemergence test; assay type: in vivo, Eriochloa villosa
Method in brief: as §2

[15] = test system: wheat; test: Test A pre-/postemergence greenhouse test; assay type: in vivo, Triticum aestivum; conditions: for Plant response rating, Wheat: 0 to 100 scale where 0 is no effect and 100 is complete control; for Wheat plant response rating: 0 to 100 scale
Method in brief: as §1

[16] = test system: wild oat; test: Test C pre-/postemergence test; assay type: in vivo, Avena fatua
Method in brief: as §2

[17] = test system: rice; test: Test C flooded paddy test; assay type: in vivo, Oryza sativa; conditions: Flood
Method in brief: as §3

[18] = Postemergence, 500 g ai/ha, 0 is no effect, 100 is complete control
[19] = Preemergence, 125 g ai/ha, 0 no effect, 100 complete control
[20] = 62 g ai/ha, Preemergence, scale 0 to 100
[21] = 125 g ai/ha, preemergence, scale 0 (no effect) to 100 (complete control)
[22] = Postemergence, 125 g ai/ha, scale 0 to 100, 0 no effect, 100 complete control
[23] = Postemergence, 250 g ai/ha, scale 0 to 100, 0 no effect, 100 complete control
[24] = Preemergence, 31 g ai/ha, scale 0 to 100 (0 no effect, 100 complete control)
[25] = preemergence, 250 g ai/ha, scale 0 (no effect) to 100 (complete control)
[26] = Postemergence, 62 g ai/ha, scale 0 to 100, 0 no effect, 100 complete control
[27] = 62 g ai/ha, scale 0 to 100 (0 no effect, 100 complete control)
[28] = 250 g ai/ha, scale 0 to 100, 0 no effect, 100 complete control, 13 to 15 days

Cn1nc(C(F)(F)F)c(C[S+]([O-])c2ccc(F)c[n+]2[O-])c1OC(F)F (centres unmarked) [Compound 58]
Plant response rating, Pigweed ([1]; Postemergence, 125 g ai/ha): 70
Pigweed plant response rating [1, 18]: 90
Pigweed plant response rating [1, 19]: 80
Plant response rating, Pigweed ([1]; Preemergence, 500 g ai/ha): 100
Wheat plant response rating [2, 20]: 60
Wheat plant response rating [2, 21]: 85
Plant response rating (0 to 100), Wheat ([2]; Postemergence, 31 g ai/ha): 0
Plant response rating (0 to 100), Wheat ([2]; Postemergence, 62 g ai/ha): 0
Plant response rating, Wheat [2, 22]: 20
Plant response rating, Wheat [2, 23]: 60
Plant response rating, Wheat [2, 24]: 10
Wheat plant response rating [2, 25]: 90
Nutsedge, Yellow plant response rating [3, 20]: 40
Nutsedge, Yellow plant response rating [3, 21]: 70
Plant response rating (0 to 100), Nutsedge, Yellow ([3]; Postemergence, 31 g ai/ha): 0
Plant response rating, Nutsedge, Yellow [3, 26]: 0
Plant response rating, Nutsedge, Yellow [3, 22]: 0
Plant response rating, Nutsedge, Yellow [3, 23]: 50
Plant response rating, Nutsedge, Yellow [3, 24]: 0
Nutsedge, Yellow plant response rating [3, 25]: 98
Johnsongrass plant response rating [4, 20]: 95
Johnsongrass plant response rating [4, 21]: 100
Plant response rating (0 to 100), Johnsongrass ([4]; Postemergence, 31 g ai/ha): 0
Plant response rating, Johnsongrass [4, 26]: 0
Plant response rating, Johnsongrass [4, 22]: 10
Plant response rating, Johnsongrass [4, 23]: 60
Plant response rating, Johnsongrass [4, 24]: 85
Johnsongrass plant response rating [4, 25]: 100
Plant response rating, Ducksalad [5, 27]: 70
Plant response rating, Ducksalad [5, 28]: 80
Corn plant response rating [6, 20]: 100
Corn plant response rating [6, 21]: 100
Plant response rating (0 to 100), Corn ([6]; Postemergence, 31 g ai/ha): 0
Plant response rating, Corn [6, 26]: 0
Plant response rating, Corn [6, 22]: 0
Plant response rating, Corn [6, 23]: 0
Plant response rating, Corn [6, 24]: 75
Corn plant response rating [6, 25]: 100
Morningglory plant response rating [7, 20]: 98
Morningglory plant response rating [7, 21]: 98
Plant response rating (0 to 100), Morningglory ([7]; Postemergence, 31 g ai/ha): 0
Plant response rating, Morningglory [7, 26]: 0
Plant response rating, Morningglory [7, 22]: 5
Plant response rating, Morningglory [7, 23]: 5
Plant response rating, Morningglory [7, 24]: 80
Morningglory plant response rating [7, 25]: 100
Galium plant response rating [8, 20]: 70
Galium plant response rating [8, 21]: 100
Plant response rating, Galium [8, 24]: 0
Galium plant response rating [8, 25]: 100
Foxtail, Giant plant response rating [9, 20]: 100
Foxtail, Giant plant response rating [9, 21]: 100
Plant response rating (0 to 100), Foxtail, Giant ([9]; Postemergence, 31 g ai/ha): 0
Plant response rating, Foxtail, Giant [9, 26]: 10
Plant response rating, Foxtail, Giant [9, 22]: 40
Plant response rating, Foxtail, Giant [9, 23]: 60
Plant response rating, Foxtail, Giant [9, 24]: 40
Foxtail, Giant plant response rating [9, 25]: 100
Bromegrass, Downy plant response rating [10, 20]: 60
Bromegrass, Downy plant response rating [10, 21]: 100
Plant response rating (0 to 100), Bromegrass, Downy ([10]; Postemergence, 31 g ai/ha): 0
Plant response rating, Bromegrass, Downy [10, 26]: 0
Plant response rating, Bromegrass, Downy [10, 22]: 0
Plant response rating, Bromegrass, Downy [10, 23]: 60
Plant response rating, Bromegrass, Downy [10, 24]: 0
Bromegrass, Downy plant response rating [10, 25]: 100
Plant response rating, Velvetleaf ([11]; Postemergence, 125 g ai/ha): 60
Velvetleaf plant response rating [11, 18]: 80
Velvetleaf plant response rating [11, 19]: 60
Plant response rating, Velvetleaf ([11]; Preemergence, 500 g ai/ha): 100
Velvetleaf plant response rating [12, 20]: 75
Velvetleaf plant response rating [12, 21]: 100
Plant response rating (0 to 100), Velvetleaf ([12]; Postemergence, 31 g ai/ha): 0
Plant response rating (0 to 100), Velvetleaf ([12]; Postemergence, 62 g ai/ha): 0
Plant response rating, Velvetleaf [12, 22]: 5
Plant response rating, Velvetleaf [12, 23]: 5
Plant response rating, Velvetleaf [12, 24]: 5
Velvetleaf plant response rating [12, 25]: 100
Nightshade plant response rating [13, 20]: 100
Nightshade plant response rating [13, 21]: 100
Plant response rating, Nightshade [13, 24]: 100
Nightshade plant response rating [13, 25]: 100
Cupgrass, Woolly plant response rating [14, 20]: 60
Cupgrass, Woolly plant response rating [14, 21]: 95
Plant response rating (0 to 100), Cupgrass, Woolly ([14]; Postemergence, 31 g ai/ha): 0
Plant response rating, Cupgrass, Woolly [14, 26]: 0
Plant response rating, Cupgrass, Woolly [14, 22]: 10
Plant response rating, Cupgrass, Woolly [14, 23]: 80
Plant response rating, Cupgrass, Woolly [14, 24]: 10
Cupgrass, Woolly plant response rating [14, 25]: 100
Plant response rating, Wheat ([15]; Postemergence, 125 g ai/ha): 60
Wheat plant response rating [15, 18]: 70
Wheat plant response rating [15, 19]: 60
Plant response rating, Wheat ([15]; Preemergence, 500 g ai/ha): 100
Oat, Wild plant response rating [16, 20]: 45
Oat, Wild plant response rating [16, 21]: 80
Plant response rating (0 to 100), Oat, Wild ([16]; Postemergence, 31 g ai/ha): 0
Plant response rating, Oat, Wild [16, 26]: 0
Plant response rating, Oat, Wild [16, 22]: 0
Plant response rating, Oat, Wild [16, 23]: 5
Plant response rating, Oat, Wild [16, 24]: 20
Oat, Wild plant response rating [16, 25]: 80
Plant response rating, Rice [17, 27]: 40
Plant response rating, Rice [17, 28]: 65

From patent US20100298141A1, “SUBSTITUTED PYRIDINE N-OXIDE HERBICIDES” (E. I. DU PONT DE NEMOURS AND COMPANY, priority 2007, published 2010)
